For assay [1], the target named is T1, Catenin beta-1 (Homo sapiens) (UniProt P35222).
T1 sequence (whole entry): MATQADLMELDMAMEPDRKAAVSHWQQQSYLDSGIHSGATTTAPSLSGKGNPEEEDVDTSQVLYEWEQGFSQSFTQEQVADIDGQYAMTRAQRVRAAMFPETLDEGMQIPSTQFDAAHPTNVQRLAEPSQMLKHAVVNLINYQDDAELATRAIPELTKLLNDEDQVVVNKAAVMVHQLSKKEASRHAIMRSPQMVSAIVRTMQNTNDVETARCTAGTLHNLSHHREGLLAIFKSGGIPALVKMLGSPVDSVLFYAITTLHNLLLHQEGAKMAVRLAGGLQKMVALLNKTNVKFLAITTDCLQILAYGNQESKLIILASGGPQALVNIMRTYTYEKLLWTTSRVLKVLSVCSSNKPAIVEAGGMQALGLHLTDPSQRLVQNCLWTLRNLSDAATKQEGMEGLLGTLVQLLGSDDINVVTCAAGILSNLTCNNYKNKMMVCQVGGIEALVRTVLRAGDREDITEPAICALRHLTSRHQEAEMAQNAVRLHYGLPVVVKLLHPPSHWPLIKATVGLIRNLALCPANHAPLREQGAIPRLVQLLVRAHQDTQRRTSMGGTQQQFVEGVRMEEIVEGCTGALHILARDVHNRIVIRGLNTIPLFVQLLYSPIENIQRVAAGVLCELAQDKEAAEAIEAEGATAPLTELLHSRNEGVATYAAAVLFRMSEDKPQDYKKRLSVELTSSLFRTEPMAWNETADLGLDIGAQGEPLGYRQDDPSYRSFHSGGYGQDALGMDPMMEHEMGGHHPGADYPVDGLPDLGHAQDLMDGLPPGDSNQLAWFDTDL
Conditions: dose 125.0 µM.
Description: Thermal stabilization of wildtype beta catenin ARD (148 to 662 residues) (unknown origin) assessed as change in melting temperature at 125 uM by DSF method

For assay [2], the target named is Poly(ADP-ribose) glycohydrolase (Homo sapiens, UniProt Q86W56). The assay can be described thus: Binding affinity to human PARG assessed as dissociation constant by SPR analysis. Background: In SPR one partner is held on a chip, and binding of the other changes the refractive index at the surface.
Assay [3] concerns the target T2, TCF4-CTNNB1 complex (Homo sapiens, UniProt P35222+Q9NQB0).
T2 sequence (P35222 whole entry): T1 sequence (whole entry)
T2 sequence (P15884 whole entry): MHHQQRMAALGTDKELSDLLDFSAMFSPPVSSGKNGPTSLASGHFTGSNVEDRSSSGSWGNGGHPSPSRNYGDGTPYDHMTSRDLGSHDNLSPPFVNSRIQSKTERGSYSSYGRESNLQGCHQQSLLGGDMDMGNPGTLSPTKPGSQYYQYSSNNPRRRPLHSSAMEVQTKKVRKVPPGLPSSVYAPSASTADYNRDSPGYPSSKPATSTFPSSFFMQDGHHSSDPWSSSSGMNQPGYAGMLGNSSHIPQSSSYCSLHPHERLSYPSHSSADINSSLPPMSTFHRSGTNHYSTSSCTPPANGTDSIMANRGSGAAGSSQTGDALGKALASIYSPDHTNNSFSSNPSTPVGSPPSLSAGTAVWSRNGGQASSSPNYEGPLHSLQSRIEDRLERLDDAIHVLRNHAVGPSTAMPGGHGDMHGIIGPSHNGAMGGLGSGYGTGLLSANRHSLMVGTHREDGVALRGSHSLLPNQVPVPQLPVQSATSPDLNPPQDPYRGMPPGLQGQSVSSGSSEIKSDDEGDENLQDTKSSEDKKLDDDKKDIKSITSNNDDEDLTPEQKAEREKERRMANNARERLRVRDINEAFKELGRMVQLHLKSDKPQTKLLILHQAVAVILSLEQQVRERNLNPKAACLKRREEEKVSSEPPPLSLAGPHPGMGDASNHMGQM
Kind of assay: Inhibition of beta catenin/recombinant GST tagged Tcf4 protein protein interaction in human HCT-116 cells. Type of assay: cell-based.

The target of assay [4] is T3, Catenin beta-1 (Homo sapiens, UniProt P35222).
T3 sequence (P35222 whole entry): T1 sequence (whole entry)
Description: Binding affinity to beta catenin ARD (142 to 686 residues) (unknown origin) assessed as inhibition constant by fluorescence polarisation assay

The target of assay [5] is T1, Catenin beta-1 (Homo sapiens).
Description: Binding affinity to beta catenin ARD (142 to 686 residues) (unknown origin) assessed as change in entropy by VP-ITC method
Assay [6] is described as follows: Downregulation of c-Myc protein expression level in human ASPC1 cells. It counts as functional, cell-based.
The nature of assay [7]: Downregulation of c-Myc protein expression level in human PANC-1 cells. Type of assay: functional, cell-based.
Assay [8] can be described thus: Inhibition of Wnt/beta-catenin (unknown origin) transcriptional activity pathway transfected human H1299 cells by measuring luciferase activity after 24 hrs by TOP-flash luciferase reporter gene assay. It counts as cell-based. Particulars: nci-h1299. In general terms: Reporter assays use an easily measured gene product as a stand-in for the process of interest.
Assay [9] concerns HCT-116. The assay can be described thus: Inhibition of cell growth in human HCT-116 cells incubated for 24 hrs by WST-1 assay. Type of assay: functional. In general terms: Formazan colour is commonly taken as a measure of viable cells.
Assay [10] has as its system SW480. Kind of assay: Inhibition of cell growth in human SW480 cells incubated for 24 hrs by WST-1 assay. It counts as functional.
For assay [11], the system named is A549. Kind of assay: Antiproliferative activity against human A549 cells expressing wnt2 incubated for 72 hrs by celltitre 96 non-radioactive cell proliferation assay kit. It counts as functional, cell-based. Particulars: A549, 72 h.
Assay [12] concerns HCT-116. The assay can be described thus: Cytotoxicity against human HCT-116 cells assessed as cell viability incubated for 72 hrs by cell titre glo assay. It counts as functional, cell-based. Conditions: HCT-116, 72 h.
The test system of assay [13] is SW480. Kind of assay: Cytotoxicity against human SW480 cells assessed as cell viability incubated for 72 hrs by cell titre glo assay. It counts as functional, cell-based. Conditions: SW480, 72 h.
Assay [14] concerns SW-620. The assay can be described thus: Cytotoxicity against human SW-620 cells assessed as cell viability incubated for 72 hrs by cell titre glo assay. Type of assay: functional, cell-based. Conditions: SW-620, 72 h.
For assay [15], the target named is T3, Catenin beta-1. Kind of assay: Binding affinity to N-terminal FLAG tagged beta catenin alpha helix (H1 - 141 to 149 aa) of armadillo repeat domain (unknown origin) by STD/HSQC based NMR analysis.
In assay [16] the target is T4, beta-catenin-B-cell lymphoma 9 protein complex (Homo sapiens, UniProt P35222).
T4 sequence (P35222 whole entry): T1 sequence (whole entry)
T4 sequence (O00512 whole entry): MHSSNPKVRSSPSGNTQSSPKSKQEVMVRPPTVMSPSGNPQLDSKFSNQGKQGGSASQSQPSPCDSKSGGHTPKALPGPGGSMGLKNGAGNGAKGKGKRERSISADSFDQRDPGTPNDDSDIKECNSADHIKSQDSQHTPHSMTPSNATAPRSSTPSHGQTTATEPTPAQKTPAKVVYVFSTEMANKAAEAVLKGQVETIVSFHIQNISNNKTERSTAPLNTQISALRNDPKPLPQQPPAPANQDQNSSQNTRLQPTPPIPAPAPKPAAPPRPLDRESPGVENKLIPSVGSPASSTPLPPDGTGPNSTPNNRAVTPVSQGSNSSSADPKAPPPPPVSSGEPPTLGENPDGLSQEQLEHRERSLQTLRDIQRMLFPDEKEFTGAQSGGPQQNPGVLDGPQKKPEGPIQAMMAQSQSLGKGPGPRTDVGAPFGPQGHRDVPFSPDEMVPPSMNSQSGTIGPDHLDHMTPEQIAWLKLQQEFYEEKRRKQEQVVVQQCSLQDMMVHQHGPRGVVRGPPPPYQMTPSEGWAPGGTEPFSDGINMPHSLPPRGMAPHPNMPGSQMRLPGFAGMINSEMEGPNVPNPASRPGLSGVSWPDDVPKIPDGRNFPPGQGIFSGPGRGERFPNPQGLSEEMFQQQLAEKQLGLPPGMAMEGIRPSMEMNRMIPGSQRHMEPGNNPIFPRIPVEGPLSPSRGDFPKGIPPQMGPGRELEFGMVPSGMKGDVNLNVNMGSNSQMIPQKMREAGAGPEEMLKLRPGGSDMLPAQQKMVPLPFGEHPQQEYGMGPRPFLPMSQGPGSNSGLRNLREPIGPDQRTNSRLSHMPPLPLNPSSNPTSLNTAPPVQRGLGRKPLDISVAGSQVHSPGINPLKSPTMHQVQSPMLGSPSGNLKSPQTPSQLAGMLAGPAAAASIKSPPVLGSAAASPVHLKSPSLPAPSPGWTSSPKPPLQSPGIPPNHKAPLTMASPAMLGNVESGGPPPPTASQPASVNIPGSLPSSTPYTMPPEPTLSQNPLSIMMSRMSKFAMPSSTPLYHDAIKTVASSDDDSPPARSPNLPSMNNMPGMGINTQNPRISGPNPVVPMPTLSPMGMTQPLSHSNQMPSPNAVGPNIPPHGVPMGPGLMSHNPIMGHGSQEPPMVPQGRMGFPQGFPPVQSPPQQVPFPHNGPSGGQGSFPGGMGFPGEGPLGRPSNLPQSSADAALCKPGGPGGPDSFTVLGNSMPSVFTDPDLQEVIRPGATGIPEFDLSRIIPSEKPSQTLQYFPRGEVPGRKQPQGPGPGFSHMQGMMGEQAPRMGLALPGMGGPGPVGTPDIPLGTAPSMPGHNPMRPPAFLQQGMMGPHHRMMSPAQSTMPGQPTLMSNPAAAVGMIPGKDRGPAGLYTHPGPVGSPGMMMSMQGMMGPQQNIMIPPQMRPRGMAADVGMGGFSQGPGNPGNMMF
The assay can be described thus: Binding affinity to N-terminal FLAG tagged beta catenin (134 to 671 residues)/FLAG tagged BCL9 domain 2 (343 to 396 residues) (unknown origin) protein protein interaction assessed as inhibition constant. Type of assay: protein-complex assay.

Assay [17] can be described thus: Inhibition of Tcf in HEK293 cells by TOPflash luciferase reporter assay. It counts as cell-based. Conditions: Homo sapiens.
For assay [18], the target named is T3, Catenin beta-1. Kind of assay: Inhibition of beta catenin in HEK293 cells by TOPflash luciferase reporter assay. It counts as cell-based.

pIC50, pKd, pKi: −log10 of the molar value.

Chain of Poly(ADP-ribose) glycohydrolase (Q86W56 whole entry): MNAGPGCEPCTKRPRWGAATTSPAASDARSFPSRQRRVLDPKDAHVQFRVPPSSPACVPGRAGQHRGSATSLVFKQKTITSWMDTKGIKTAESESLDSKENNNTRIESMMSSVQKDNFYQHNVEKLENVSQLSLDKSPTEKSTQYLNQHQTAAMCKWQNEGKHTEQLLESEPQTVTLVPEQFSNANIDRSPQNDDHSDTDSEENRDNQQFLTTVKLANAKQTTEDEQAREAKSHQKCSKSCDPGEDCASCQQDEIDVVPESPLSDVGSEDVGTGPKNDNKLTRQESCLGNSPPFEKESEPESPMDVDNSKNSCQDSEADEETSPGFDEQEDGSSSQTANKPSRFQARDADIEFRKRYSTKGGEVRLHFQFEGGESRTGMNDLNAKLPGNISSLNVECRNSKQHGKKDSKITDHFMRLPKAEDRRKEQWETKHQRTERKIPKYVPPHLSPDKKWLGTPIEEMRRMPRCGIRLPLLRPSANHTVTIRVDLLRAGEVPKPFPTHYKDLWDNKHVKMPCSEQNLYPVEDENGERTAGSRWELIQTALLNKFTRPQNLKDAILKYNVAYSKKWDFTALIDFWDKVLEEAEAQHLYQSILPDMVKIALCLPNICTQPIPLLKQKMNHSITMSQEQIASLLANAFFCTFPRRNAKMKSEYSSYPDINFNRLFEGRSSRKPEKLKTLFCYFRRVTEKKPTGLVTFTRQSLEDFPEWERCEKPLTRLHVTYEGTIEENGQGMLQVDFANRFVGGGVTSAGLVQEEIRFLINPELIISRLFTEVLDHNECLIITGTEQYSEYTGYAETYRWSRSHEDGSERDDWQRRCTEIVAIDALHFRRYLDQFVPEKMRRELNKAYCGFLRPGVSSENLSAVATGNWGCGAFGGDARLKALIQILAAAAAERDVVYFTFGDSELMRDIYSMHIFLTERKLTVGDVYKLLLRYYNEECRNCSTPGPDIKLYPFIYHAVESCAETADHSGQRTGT

In the case of `CN(C)c1ccc(-c2nc3cc(F)ccc3[nH]2)cc1`, the ΔTm in assay [1] is -0.1 °C.
For `CC(C)(C)NS(=O)(=O)c1ccc2c(c1)C(=O)c1ccccc1C2=O`, the pKd in assay [2] was 8.84.
Consider `COc1c(C[C@H](C)OC(=O)Oc2ccc(O)cc2)c2c3c(C[C@H](C)OC(=O)c4ccccc4)c(OC)c(=O)c4c(O)cc(OC)c(c5c(OC)cc(O)c(c1=O)c52)c43`, for which the pIC50 in assay [3] was 5.00.
Regarding `Cn1ncnc2c(=O)n(C)c(=O)nc1-2`, in [1], the ΔTm was -0.5 °C.
`On1ncc2cc(CCc3nn[nH]n3)ccc21` gave a pKi in assay [4] of 5.52. This molecule also returned a -TdeltaS in assay [5] of -7.89 kcal/mol.
With `COc1cccc(/C=C2/SC(=S)N(CCC(=O)O)C2=O)c1OC`, the ΔTm in assay [1] was -0.5 °C.
Regarding `O=C(O)c1ccccc1Oc1ccccc1`, the ΔTm in [1] is -0.1 °C.
Turning to `COc1ccc2[nH]c3c(-c4cccc5ccccc45)nccc3c2c1`, the pIC50 in assay [6] and in [7] was above 6.30 throughout. For the same molecule, in [1], the ΔTm is -0.9 °C.
In assay [8], `O=C1C(Cl)=C(Nc2ccc(S(=O)(=O)Nc3ccccn3)cc2)C(=O)c2ccccc21` showed a pIC50 of 5.64.
`O=C(CN1C2=NCCN2c2ccccc21)c1ccc(-c2ccccc2)cc1`: the ΔTm in assay [1] was -0.1 °C. Also, the GI50 in assay [9] was 13.9 µM; in assay [10], 13.2 µM.
`O=C(Nc1ccc(O[C@H]2CCNC2)c(-c2ccc(F)cc2)c1)c1ccc(O[C@@H]2CCNC2)c(-c2ccc(F)c(F)c2)c1`: the ΔTm in [1] is -0.5 °C.
Turning to `COc1c(C[C@H](C)OC(=O)c2c(C)cc(O)cc2O)c2c3c(C[C@H](C)OC(=O)c4c(C)cc(O)cc4O)c(OC)c(=O)c4c(O)cc(OC)c(c5c(OC)cc(O)c(c1=O)c52)c43`, the pIC50 in assay [3] was 5.00.
On to `Cc1cc(Cl)ccc1/N=C\c1ccc(F)c(Oc2ccccc2)c1`, for which the ΔTm in [1] came to 0.1 °C.
The same measure, in the same setting: then `O=C(O)c1ccccc1-c1c2ccc(=O)cc-2oc2cc(O)ccc12`, with 0.1 °C.
Still for that read-out and setting: next, `CN(C)CCOc1nc2ccccc2nc1C#Cc1ccccc1`: 0 °C; `COC(=O)c1cccc(NS(=O)(=O)c2ccc(C)cc2)c1`: -0.5 °C.
Consider `Fc1ccc2nc(OCCN3CCCC3)c(C#Cc3ccccc3)nc2c1`, for which the ΔTm in [1] worked out at 0.1 °C. In addition, the negative-log IC50 (pIC50) in assay [11] was 5.00.
As to `c1ccc(CCNc2nc(N3CCCCC3)nc3ccccc23)cc1`, in assay [1], the ΔTm was -0.6 °C. Further, the pIC50 was 5.21 in [12], 5.23 in assay [13] and 5.17 in assay [14].
`CC(C)c1cc2c(c(O)c1O)[C@@]1(C(=O)O)CCCC(C)(C)[C@@H]1CC2` [CARNOSIC ACID]: the ΔTm in [1] was -2.7 °C. The molecule further gave a pKd in assay [15] of 4.70. In addition, the pKi in [16] is 5.52.
Take `Cc1ccc(S(=O)(=O)Nc2cccc(C(=O)O)c2)cc1`: the ΔTm in assay [1] is -0.5 °C.
Still for that read-out and setting: then `Cc1ccc(/C=N/NC(=O)c2ccccc2Oc2ccccc2)o1`, with -0.5 °C; and `Cc1ccc2nc(N(C)C)nc(NCc3ccc(C(=O)NCc4ccc(F)cc4)cc3)c2c1`, with -0.7 °C.
As for `CCc1cccc2c3c([nH]c12)[C@@](CC)(CC(=O)O)OCC3` [SDX-101], the shift in melting temperature (ΔTm) in assay [1] was -0.5 °C. In addition, the pIC50 in assay [17] was 4.34; in assay [18], 3.17.
For the molecule `CCc1ccc(-c2nc(CSCC(=O)NCCc3ccccc3)c(C)o2)cc1`, the ΔTm in assay [1] was -0.7 °C.

Usually ΔTm stands for the shift of the melting midpoint relative to a reference. What is called pKd is the Kd on a negative log10 scale, so that one unit is a factor of ten. As a reminder, the pIC50 is −log10 of the IC50, conventionally taken in molar units. As a reminder, the pKi is −log10 of the Ki, conventionally taken in molar units. The GI50 is the concentration that inhibits growth by half. A lower GI50 goes with more potent growth inhibition.

Values taken from ChEMBL document CHEMBL5104113, “Biophysical Survey of Small-Molecule β-Catenin Inhibitors: A Cautionary Tale” (J Med Chem, 2022).
